Laboratory results published in patent publication US9149038B2, “4-amino-6-(heterocyclic)picolinates and 6-amino-2-(heterocyclic)pyrimidine-4-carboxylates and their use as herbicides” (Dow AgroSciences LLC, priority 2013, dated 2015).
Read-outs that look alike come from different tables or passages of the source.

Tests used:
[1] = test system: Key Broadleaf Weed and Crop Species; assay: Post-Emergent Test II: postemergent herbicidal activity, visual rating after 14 d (Table 7); type: in vivo; settings: post-emergence, 336 h; for pest or weed control at 35 g/ha: 35 g ai/ha; for pest or weed control at 70 g/ha: 70 g ai/ha; for pest or weed control at 140 g/ha: 140 g ai/ha
Outline: (§1)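 Scoring is visual, 0-100, at 14 d after application, comparing treated with untreated plants. Application: overhead track spray at 187 L/ha onto seedlings at 1-2 true leaves, in surfactant/crop-oil carrier.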

[2] = test system: Key Grass and Sedge Weeds as well as Grass Crops; assay: Post-Emergent Test II: postemergent herbicidal activity, visual rating after 14 d (Table 8); type: in vivo; settings: post-emergence, 336 h; for pest or weed control at 35 g/ha: 35 g ai/ha; for pest or weed control at 70 g/ha: 70 g ai/ha; for pest or weed control at 140 g/ha: 140 g ai/ha
Outline: as §1

[3] = ABUTH: velvetleaf (Abutilon theophrasti), read-out: Visual Growth Reduction (%) 14 Days After Application ABUTH
[4] = AMARE: redroot pigweed (Amaranthus retroflexus), read-out: Visual Growth Reduction (%) 14 Days After Application AMARE
[5] = BRSNN: oilseed rape, canola (Brassica napus), read-out: Visual Growth Reduction (%) 14 Days After Application BRSNN
[6] = CHEAL: lambsquarters (Chenopodium album), read-out: Visual Growth Reduction (%) 14 Days After Application CHEAL
[7] = EPHHL: wild poinsettia (Euphorbia heterophylla), read-out: Visual Growth Reduction (%) 14 Days After Application EPHHL
[8] = HELAN: sunflower (Helianthus annuus), read-out: Visual Growth Reduction (%) 14 Days After Application HELAN
[9] = barnyardgrass (Echinochloa crus-galli), read-out: Visual Growth Reduction (%) 14 Days After Application, ECHCG
[10] = giant foxtail (Setaria faberi), read-out: Visual Growth Reduction (%) 14 Days After Application, SETFA
[11] = maize, corn (Zea mays), read-out: Visual Growth Reduction (%) 14 Days After Application, ZEAMX
[12] = rice (Oryza sativa), read-out: Visual Growth Reduction (%) 14 Days After Application, ORYSA
[13] = wheat, spring (Triticum aestivum), read-out: Visual Growth Reduction (%) 14 Days After Application, TRZAS
[14] = yellow nutsedge (Cyperus esculentus), read-out: Visual Growth Reduction (%) 14 Days After Application, CYPES

COC(=O)c1nc(-c2ccc(F)c3c2OC(F)(F)O3)cc(N)c1Cl [Compound 88]
pest or weed control at 35 g/ha [1, 3]: 60 to 74% | pest or weed control at 70 g/ha [1, 3]: 85 to 94% | pest or weed control at 140 g/ha [1, 3]: 85 to 94% | pest or weed control at 35 g/ha [1, 4]: 95 to 100% | pest or weed control at 70 g/ha [1, 4]: 95 to 100% | pest or weed control at 140 g/ha [1, 4]: 95 to 100% | pest or weed control at 35 g/ha [1, 5]: 60 to 74% | pest or weed control at 70 g/ha [1, 5]: 60 to 74% | pest or weed control at 140 g/ha [1, 5]: 75 to 84% | pest or weed control at 35 g/ha [1, 6]: 85 to 94% | pest or weed control at 70 g/ha [1, 6]: 85 to 94% | pest or weed control at 140 g/ha [1, 6]: 95 to 100% | pest or weed control at 35 g/ha [1, 7]: 0 to 29% | pest or weed control at 70 g/ha [1, 7]: 0 to 29% | pest or weed control at 140 g/ha [1, 7]: 0 to 29% | pest or weed control at 35 g/ha [1, 8]: 30 to 44% | pest or weed control at 70 g/ha [1, 8]: 60 to 74% | pest or weed control at 140 g/ha [1, 8]: 60 to 74% | pest or weed control at 35 g/ha [2, 9]: 0 to 29% | pest or weed control at 70 g/ha [2, 9]: 0 to 29% | pest or weed control at 140 g/ha [2, 9]: 0 to 29% | pest or weed control at 35 g/ha [2, 10]: 0 to 29% | pest or weed control at 70 g/ha [2, 10]: 0 to 29% | pest or weed control at 140 g/ha [2, 10]: 0 to 29% | pest or weed control at 35 g/ha [2, 11]: 0 to 29% | pest or weed control at 70 g/ha [2, 11]: 0 to 29% | pest or weed control at 140 g/ha [2, 11]: 0 to 29% | pest or weed control at 35 g/ha [2, 12]: 0 to 29% | pest or weed control at 70 g/ha [2, 12]: 0 to 29% | pest or weed control at 140 g/ha [2, 12]: 0 to 29% | pest or weed control at 35 g/ha [2, 13]: 0 to 29% | pest or weed control at 70 g/ha [2, 13]: 45 to 59% | pest or weed control at 140 g/ha [2, 13]: 60 to 74% | pest or weed control at 35 g/ha [2, 14]: 30 to 44% | pest or weed control at 70 g/ha [2, 14]: 60 to 74% | pest or weed control at 140 g/ha [2, 14]: 75 to 84%
